From US20090192198A1, “INHIBITORS OF THE 11-BETA-HYDROXYSTEROID DEHYDROGENASE TYPE 1 ENZYME” (Abbott Laboratories, priority 2005, published 2009) come the findings set out here.

Assay [1] deals with Fisher rats. Description: Rat wake EEG power spectrum and REM sleep parameters. It is filed as in vivo. Conditions: 30 mg/kg, 3 times at 24, 26, and 0.1 hours before measurement. As to the method: EEG of Fisher rats (n=8/group) with chronically implanted supracortical EEG-electrodes were analyzed for an 8 h period. Intraindividual drug-induced changes of power spectra were analyzed. For REM sleep the number of REM episodes, latency to first REM, and total REM time was analyzed.

Assay [2] concerns serotonin (5-HT) levels (medial prefrontal cortex, hippocampus). Description: Microdialysis, cortical/hippocampal serotonin release. The class given is in vivo, rat. To be noted: single administration 30 mg/kg, p.o.; medial prefrontal cortex and hippocampus (FIGS. 7a, 7b). As to the method:
(§1) Microdialysis studies (resting or challenging conditions) in freely moving, male Sprague Dawley rats (Janvier, 295-315 g, n=5-8/treatment group) were performed using stereotactically instrumented microdialysis probes (CMA/12-14-2): mPFC, hippocampus. Aliquots of the same microdialysate fractions (6 before, and 9-12 after compound administration) were analyzed either for acetylcholine or for serotonin by HPLC and electrochemical detection.
This is a feature shared by marketed anti-depressive drugs and might indicate the potential use for 11β-HSD1 inhibitors as antidepressants/anxiolytic drugs. These findings remain to be confirmed by (i) investigating 11β-HSD1 inhibitors from different chemotype(s) in selected microdialysis studies and/or (ii) in animal models of depression/anxiety.

Assay [3] deals with Male Sprague Dawley rats. Description: Short-term social recognition memory in the rat. It is filed as in vivo. To be noted: 30 mg/kg po at 24, 18 and 1 hour before first juvenile exposure, vs vehicle control rats (FIG. 4). The method, then: Social memory and social cognition are impaired in disorders such as Alzheimer's disease and schizophrenia. One of the more commonly used preclinical models of social recognition memory is short-term social recognition in the rat, a model of short-term memory based on the recognition of a juvenile rat by an adult rat. […] The juvenile rat is then removed and reintroduced 120 min later, and interactive behavior of the adult rat is again monitored. If memory has been lost over the interval between trials 1 and 2, the extent of interaction is equal (expressed as a ratio of investigation time of T1/T2) and the ratio will be close to 1. However, if the adult remembers the juvenile, the investigation ratio declines. To test for non-specific effects, a novel juvenile is introduced at 120 minutes instead of the familiar juvenile. […]
Rats were pre-dosed po at 24, 18 and 1 hour before first juvenile rat exposure with vehicle, or Compound CC (30 mg/kg). […] The time the adult spent exploring (sniffing, grooming, close following) the juvenile during this test session was recorded, and defined as the first investigation duration. […] Data were analyzed using a one-way analysis of variance. If there was a significant effect, subsequent post hoc significance was determined using Dunnett's multiple comparison testing (p<0.05 was regarded as significant).

For assay [4], the system named is acetylcholine release (mPFC, hippocampus). The experiment in a line: Microdialysis, cortical/hippocampal acetylcholine release. Conditions: single administration 30 mg/kg, p.o. The class given is in vivo, rat. As to the method: as §1

`O=C(CN1CCN(c2ccc(C(F)(F)F)cn2)CC1)NC1C2CC3CC1CC(O)(C3)C2` (centres unmarked) [Compound CC, N-[(E)-5-Hydroxy-2-adamantyl]-2-{4-[5-(trifluoromethyl)pyridin-2-yl]piperazin-1-yl}acetamide]: the “reduction of total sleep time” value in assay [1] (8 h period) is 10%. The “reduction of number of REM sleep episodes” value in assay [1] (8 h period (FIG. 5a)) came to 16%. The “reduction of REM time” value in assay [1] (8 h period (FIG. 5b)) was found to be 23%. In assay [1] (8 h period (FIG. 5c)), the “increase of latency to first REM” value was 62%. Moreover, in assay [2], the “microdialysate serotonin (5-HT) levels” value is recorded as “long-lasting increase of serotonin (5-HT) levels”. Besides, the “short-term memory retention (social recognition)” value in assay [3] was “significant improvement in short-term memory retention”. Further, the “ACh release under resting conditions” value in assay [4] (acute) is on record as “did not change ACh release”. Moreover, in assay [4] (cortex and hippocampus (FIGS. 6a-6c)), the “ACh release under challenging conditions (home cage to novel cage and back)” value was “did not induce any further stimulation of ACh release”.
